# Assay results reported in US20260184710A1, “CASITAS B-LINEAGE LYMPHOMA PROTOONCOGENE B (CBL-B) DEGRADING COMPOUNDS AND ASSOCIATED METHODS OF USE” (Arvinas Operations, Inc., priority 2022, published 2026).
# Target: T1, Cbl-b (Homo sapiens, UniProt Q13191)
# T1 construct: Cbl-b-HiBit KI Jurkat Cells were purchased from Promega; host or cells: Cbl-b-HiBiT knock-in Jurkat cells
# Test: Cbl-b Degradation Method B (Nano-Glo HiBiT lytic detection)
# Format: cell-based
# Conditions: Cbl-b-HiBit KI Jurkat Cells, incubated at least 6-24 hours; for DC50: half maximal degradation, read-out: Cbl-b Degredation Method B IC50; for Dmax: maximum degradation observed, read-out: Cbl-b Degredation Method B Dmax (%)
# How it was run: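 An 11-point, 3-fold compound dilution was applied for 6-24 hours to Jurkat cells carrying HiBiT-tagged endogenous Cbl-b. Lytic HiBiT luminescence quantified residual protein. Outputs are DC50 and Dmax relative to DMSO control.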
# T1 sequence (Q13191 whole entry): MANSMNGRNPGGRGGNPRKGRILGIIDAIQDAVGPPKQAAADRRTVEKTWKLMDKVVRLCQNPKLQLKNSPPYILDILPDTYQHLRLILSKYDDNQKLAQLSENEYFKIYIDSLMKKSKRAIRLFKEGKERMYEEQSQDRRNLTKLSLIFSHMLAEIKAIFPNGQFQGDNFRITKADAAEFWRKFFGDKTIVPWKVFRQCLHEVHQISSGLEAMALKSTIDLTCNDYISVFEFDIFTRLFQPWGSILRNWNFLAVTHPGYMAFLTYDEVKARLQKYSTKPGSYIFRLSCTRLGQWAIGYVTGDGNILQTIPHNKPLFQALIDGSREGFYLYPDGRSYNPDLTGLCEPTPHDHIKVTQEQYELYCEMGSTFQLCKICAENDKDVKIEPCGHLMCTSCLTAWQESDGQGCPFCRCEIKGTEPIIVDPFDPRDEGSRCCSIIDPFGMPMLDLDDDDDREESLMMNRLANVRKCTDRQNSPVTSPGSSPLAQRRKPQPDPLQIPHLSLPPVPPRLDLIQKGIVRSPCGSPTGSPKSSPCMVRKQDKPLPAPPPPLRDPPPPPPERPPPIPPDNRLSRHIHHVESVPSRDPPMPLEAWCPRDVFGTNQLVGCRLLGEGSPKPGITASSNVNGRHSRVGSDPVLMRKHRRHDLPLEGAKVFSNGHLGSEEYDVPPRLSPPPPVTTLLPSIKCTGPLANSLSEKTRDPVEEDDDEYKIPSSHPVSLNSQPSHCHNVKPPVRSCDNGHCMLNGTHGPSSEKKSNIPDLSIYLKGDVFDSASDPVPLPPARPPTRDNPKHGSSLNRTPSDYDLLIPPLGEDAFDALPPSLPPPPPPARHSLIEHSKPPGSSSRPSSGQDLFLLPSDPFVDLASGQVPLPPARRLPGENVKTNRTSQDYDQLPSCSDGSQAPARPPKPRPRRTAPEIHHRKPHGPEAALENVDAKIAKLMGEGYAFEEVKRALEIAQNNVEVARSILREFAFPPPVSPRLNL
SMILES,DC50,Dmax
"Cn1cnnc1CC1(c2cccc(N3Cc4c(cc(CN5CCC(CC6CCN(c7ccc8c(c7)C(=O)N(C7CCC(=O)NC7=O)C8=O)CC6)CC5)cc4C(F)(F)F)C3=O)c2)COC1 (centres unmarked) [Example 78, 2-(2,6-dioxopiperidin-3-yl)-5-{4-[(1-{[2-(3-{3-[(4-methyl-4H-1,2,4-triazol-3-yl)methyl]oxetan-3-yl}phenyl)-3-oxo-7-(trifluoromethyl)-2,3-dihydro-1H-isoindol-5-yl]methyl}piperidin-4-yl)methyl]piperidin-1-yl}-2,3-dihydro-1H-isoindole-1,3-dione]",> 500 nM,–
"Cn1cnnc1CC1(c2cccc(N3Cc4c(cc(CN5CCC(CCN6CCN(c7ccc8c(c7)C(=O)N(C7CCC(=O)NC7=O)C8=O)CC6)CC5)cc4C(F)(F)F)C3=O)c2)COC1 (centres unmarked) [Example 39, 2-(2,6-dioxopiperidin-3-yl)-5-{4-[2-(1-{[2-(3-{3-[(4-methyl-4H-1,2,4-triazol-3-yl)methyl]oxetan-3-yl}phenyl)-3-oxo-7-(trifluoromethyl)-2,3-dihydro-1H-isoindol-5-yl]methyl}piperidin-4-yl)ethyl]piperazin-1-yl}-2,3-dihydro-1H-isoindole-1,3-dione]",> 500 nM,–
"Cc1cc(N2CCC(O[C@H]3CC[C@H](CN4CCN(Cc5cc6c(c(C(F)(F)F)c5)CN(c5cccc(C7(Cc8nncn8C)CC7)c5)C6=O)C(C)(C)C4)CC3)CC2)c(F)c2c1C(=O)N(C1CCC(=O)NC1=O)C2 (some centres unmarked) [Example 227, 3-[4-fluoro-7-methyl-1-oxo-5-(4-{[(1r,4r)-4-[(3,3-dimethyl-4-{[2-(3-{1-[(4-methyl-4H-1,2,4-triazol-3-yl)methyl]cyclopropyl}phenyl)-3-oxo-7-(trifluoromethyl)-2,3-dihydro-1H-isoindol-5-yl]methyl}piperazin-1-yl)methyl]cyclohexyl]oxy}piperidin-1-yl)-2,3-dihydro-1H-isoindol-2-yl]piperidine-2,6-dione]",< 5 nM,> 70%
"COc1ccc(N2CCC(CN3CCN(Cc4cc5c(c(C(F)(F)F)c4)CN(c4cccc(C6(Cc7nncn7C)COC6)c4)C5=O)CC3)CC2)cc1C(=O)NC1CCC(=O)NC1=O (centres unmarked) [Example 56, N-(2,6-dioxopiperidin-3-yl)-2-methoxy-5-{4-[(4-{[2-(3-{3-[(4-methyl-4H-1,2,4-triazol-3-yl)methyl]oxetan-3-yl}phenyl)-3-oxo-7-(trifluoromethyl)-2,3-dihydro-1H-isoindol-5-yl]methyl}piperazin-1-yl)methyl]piperidin-1-yl}benzamide]",> 500 nM,–
"Cn1cnnc1CC1(c2cccc(N3Cc4c(cc(CN5CCC[C@H](CN6CC[C@@H](OC7CCN(c8ccc9c(c8F)CN(C8CCC(=O)NC8=O)C9=O)CC7)CC6(C)C)C5)cc4C(F)(F)F)C3=O)c2)CC(C#N)C1 (single isomer, unassigned) [Example 290, (1r**,3r**)-3-[3-(6-{[(3S)-3-{[(4R*)-4-({1-[2-(2,6-dioxopiperidin-3-yl)-4-fluoro-1-oxo-2,3-dihydro-1H-isoindol-5-yl]piperidin-4-yl}oxy)-2,2-dimethylpiperidin-1-yl]methyl}piperidin-1-yl]methyl}-1-oxo-4-(trifluoromethyl)-2,3-dihydro-1H-isoindol-2-yl)phenyl]-3-[(4-methyl-4H-1,2,4-triazol-3-yl)methyl]cyclobutane-1-carbonitrile]",> 500 nM,–

# More lines, now with the values ahead:
DC50,Dmax,SMILES
5 to 50 nM,< 35%,"COc1c(N2CCC(C(=O)N3CCC4(CC3)CN(c3cc5c(c(C(F)(F)F)c3)CN(c3cccc(C6(Cc7nncn7C)COC6)c3)C5=O)C4)CC2)ccc2c1CN(C1CCC(=O)NC1=O)C2=O (centres unmarked) [Example 265, 3-[4-methoxy-5-(4-{2-[2-(3-{3-[(4-methyl-4H-1,2,4-triazol-3-yl)methyl]oxetan-3-yl}phenyl)-3-oxo-7-(trifluoromethyl)-2,3-dihydro-1H-isoindol-5-yl]-2,7-diazaspiro[3.5]nonane-7-carbonyl}piperidin-1-yl)-1-oxo-2,3-dihydro-1H-isoindol-2-yl]piperidine-2,6-dione]"
> 500 nM,–,"C[C@@H]1c2nc(N3CCC(O[C@H]4CC[C@H](CN5CCN(Cc6cc7c(c(C(F)(F)F)c6)CN(c6cccc(C8(Cc9nncn9C)CC(C#N)C8)c6)C7=O)[C@@H](C)C5)CC4)CC3)ccc2C(=O)N1C1CCC(=O)NC1=O (single isomer, unassigned) [Example 248, (1r***,3r***)-3-[3-(6-{[(2S)-2-methyl-4-{[(1r**,4r**)-4-({1-[(7R*)-6-(2,6-dioxopiperidin-3-yl)-7-methyl-5-oxo-5H,6H,7H-pyrrolo[3,4-b]pyridin-2-yl]piperidin-4-yl}oxy)cyclohexyl]methyl}piperazin-1-yl]methyl}-1-oxo-4-(trifluoromethyl)-2,3-dihydro-1H-isoindol-2-yl)phenyl]-3-[(4-methyl-4H-1,2,4-triazol-3-yl)methyl]cyclobutane-1-carbonitrile]"
< 5 nM,> 70%,"CC1c2nc(N3CCC(O[C@H]4CC[C@@H](CN5[C@@H](C)CN(Cc6cc7c(c(C(F)(F)F)c6)CN(c6cccc(C8(Cc9nncn9C)COC8)c6)C7=O)C[C@@H]5C)CC4)CC3)ccc2C(=O)N1C1CCC(=O)NC1=O (stereo partly drawn) [Example 249, 3-[7-methyl-5-oxo-2-(4-{[(1r*,4r*)-4-{[(2S,6S)-2,6-dimethyl-4-{[2-(3-{3-[(4-methyl-4H-1,2,4-triazol-3-yl)methyl]oxetan-3-yl}phenyl)-3-oxo-7-(trifluoromethyl)-2,3-dihydro-1H-isoindol-5-yl]methyl}piperazin-1-yl]methyl}cyclohexyl]oxy}piperidin-1-yl)-5H,6H,7H-pyrrolo[3,4-b]pyridin-6-yl]piperidine-2,6-dione]"
5 to 50 nM,< 35%,"Cn1cnnc1C[C@]1(c2cccc(N3Cc4c(cc(N5CC6(CCN(C(=O)C7CCN(c8ccc9c(c8)C(=O)N(C8CCC(=O)NC8=O)C9=O)CC7)CC6)C5)cc4C(F)(F)F)C3=O)c2)C[C@H](C#N)C1 (some centres unmarked) [Example 146, 3-[3-[6-[7-[1-[2-(2,6-dioxo-3-piperidyl)-1,3-dioxo-isoindolin-5-yl]piperidine-4-carbonyl]-2,7-diazaspiro[3.5]nonan-2-yl]-1-oxo-4-(trifluoromethyl)isoindolin-2-yl]phenyl]-3-[(4-methyl-1,2,4-triazol-3-yl)methyl]cyclobutanecarbonitrile]"
< 5 nM,> 70%,"Cn1cnnc1CC1(c2cccc(-n3cc4c(C(F)(F)F)cc(CN5CCC[C@H](CN6CCN(C[C@H]7CC[C@@H](OC8CCN(c9ccc%10c(c9F)CN(C9CCC(=O)NC9=O)C%10=O)CC8)CC7)CC6(C)C)C5)cc4n3)c2)COC1 (stereo partly drawn) [Example 267, 3-[4-fluoro-1-oxo-5-(4-{[(1r,4r)-4-[(3,3-dimethyl-4-{[(3S)-1-{[2-(3-{3-[(4-methyl-4H-1,2,4-triazol-3-yl)methyl]oxetan-3-yl}phenyl)-4-(trifluoromethyl)-2H-indazol-6-yl]methyl}piperidin-3-yl]methyl}piperazin-1-yl)methyl]cyclohexyl]oxy}piperidin-1-yl)-2,3-dihydro-1H-isoindol-2-yl]piperidine-2,6-dione]"
< 5 nM,35 to 70%,"Cc1cc(N2CCC(CN3CCC4(CC3)CN(c3cc5c(c(C(F)(F)F)c3)CN(c3cccc(C6(Cc7nncn7C)CC6)c3)C5=O)C4)CC2)c(F)c2c1C(=O)N(C1CCC(=O)NC1=O)C2 (centres unmarked) [Example 191, 3-{4-fluoro-7-methyl-5-[4-({2-[2-(3-{1-[(4-methyl-4H-1,2,4-triazol-3-yl)methyl]cyclopropyl}phenyl)-3-oxo-7-(trifluoromethyl)-2,3-dihydro-1H-isoindol-5-yl]-2,7-diazaspiro[3.5]nonan-7-yl}methyl)piperidin-1-yl]-1-oxo-2,3-dihydro-1H-isoindol-2-yl}piperidine-2,6-dione]"
5 to 50 nM,> 70%,"Cn1cnnc1CC1(c2cccc(N3Cc4c(cc(CN5CCN(C[C@H]6CC[C@H](OC7CCN(c8ccc9c(c8F)CN(C8CCC(=O)NC8=O)C9=O)CC7)CC6)CC5(C)C)cc4C(F)(F)F)C3=O)c2)CC(C#N)C1 (some centres unmarked) [Example 254, (1r**,3r**)-3-(3-{6-[(2,2-dimethyl-4-{[(1r*,4r*)-4-({1-[2-(2,6-dioxopiperidin-3-yl)-4-fluoro-1-oxo-2,3-dihydro-1H-isoindol-5-yl]piperidin-4-yl}oxy)cyclohexyl]methyl}piperazin-1-yl)methyl]-1-oxo-4-(trifluoromethyl)-2,3-dihydro-1H-isoindol-2-yl}phenyl)-3-[(4-methyl-4H-1,2,4-triazol-3-yl)methyl]cyclobutane-1-carbonitrile]"
> 500 nM,–,"C[C@@H]1c2nc(N3CCC(O[C@H]4CC[C@H](CN5CCN(Cc6cc7c(c(C(F)(F)F)c6)CN(c6cccc(C8(Cc9nncn9C)CC(C#N)C8)c6)C7=O)C(C)(C)C5)CC4)CC3)ccc2C(=O)N1C1CCC(=O)NC1=O (single isomer, unassigned) [Example 309, (1r***,3r***)-3-(3-{6-[(2,2-dimethyl-4-{[(1r**,4r**)-4-({1-[(7R*)-6-(2,6-dioxopiperidin-3-yl)-7-methyl-5-oxo-5H,6H,7H-pyrrolo[3,4-b]pyridin-2-yl]piperidin-4-yl}oxy)cyclohexyl]methyl}piperazin-1-yl)methyl]-1-oxo-4-(trifluoromethyl)-2,3-dihydro-1H-isoindol-2-yl}phenyl)-3-[(4-methyl-4H-1,2,4-triazol-3-yl)methyl]cyclobutane-1-carbonitrile]"
